For 24 molecules, GI50 results are on record in patent publication US20240383923A1, “HETEROARYL DERIVATIVE AND USE THEREOF” (VORONOI INC., priority 2022, published 2024).

A value given as a limit tells only on which side of the number the result lay.

By GI50 is commonly meant the concentration giving 50% growth inhibition.

The test system of this assay is BT-474 cancer cells. Put plainly: Inhibition of BT-474 cell proliferation (CellTiter-Glo). Type of assay: cell-based. Particulars: Homo sapiens, BT-474 cells, 120 hours. As to the method: BT-474 cancer cells were cultured by using RPMI-1640 medium containing 20% FBS. The BT-474 cancer cells were seeded to a white clear bottom 96 well plate (Corning) at 5,000 cells per well 48 hours before the BT-474 cancer cells were treated with Example Compounds. Example Compounds were diluted in dimethylsulfoxide (3-fold diluted, total 11 concentrations) and 1 μL each was injected so that the final concentration was 0.2 nM to 10 μM. For the measurement of living cells, the cells were stored at room temperature for 10 minutes using the CellTiter-Glo cell viability reagent (Promega) after a predetermined time (120 hours) after the treatment of Example Compounds, and then the luminescence intensity was measured using a reader (SynergyNeo, Biotek). Each test was repeated three times.
The result value was calculated as a cell growth rate (%) compared to a control group. Graphs were plotted and GI50 values were calculated using the GraphPad Prism version 8.0 program, and the results are shown in Table 18 below.
Take `COc1cc2ncnc(Nc3cc(C)c(Oc4ccc5c(c4)ncn5C)cc3OC)c2cc1NC(=O)/C(F)=C/[C@H]1CCCN1C` [Example 56, (R,Z)-2-fluoro-N-(7-methoxy-4-((2-methoxy-5-methyl-4-((1-methyl-1H-benzo[d]imidazol-5-yl)oxy)phenyl)amino)quinazolin-6-yl)-3-(1-methylpyrrolidin-2-yl)acrylamide]: the GI50 is at most 50 nM.

Take `COc1cc2ncnc(Nc3cc(C)c(Oc4ccc5c(c4)ncn5C)cc3OC)c2cc1NC(=O)/C(F)=C\[C@H]1CCCN1C` [Example 57, (R,E)-2-fluoro-N-(7-methoxy-4-((2-methoxy-5-methyl-4-((1-methyl-1H-benzo[d]imidazol-5-yl)oxy)phenyl)amino)quinazolin-6-yl)-3-(1-methylpyrrolidin-2-yl)acrylamide]: the 50% growth inhibitory concentration (GI50) was at most 50 nM.

On to `COc1cc2ncnc(Nc3cc(Cl)c(Oc4ccc5c(c4)ncn5C)cc3OC)c2cc1NC(=O)/C(F)=C/[C@H]1CCCN1C` [Example 58, (R,Z)—N-(4-((5-chloro-2-methoxy-4-((1-methyl-1H-benzo[d]imidazol-5-yl)oxy)phenyl)amino)-7-methoxyquinazolin-6-yl)-2-fluoro-3-(1-methylpyrrolidin-2-yl)acrylamide], for which the GI50 is at most 50 nM.

Regarding `COc1cc2ncnc(Nc3cc(Cl)c(Oc4ccc5c(c4)ncn5C)cc3OC)c2cc1NC(=O)/C(F)=C\[C@H]1CCCN1C` [Example 59, (R,E)-N-(4-((5-chloro-2-methoxy-4-((1-methyl-1H-benzo[d]imidazol-5-yl)oxy)phenyl)amino)-7-methoxyquinazolin-6-yl)-2-fluoro-3-(1-methylpyrrolidin-2-yl)acrylamide], the GI50 was at most 50 nM.

As to `COc1cc2ncnc(Nc3cc(F)c(Oc4ccc5c(c4)ncn5C)cc3OC)c2cc1NC(=O)/C(F)=C\[C@H]1CCCN1C` [Example 60, (R,E)-2-fluoro-N-(4-((5-fluoro-2-methoxy-4-((1-methyl-1H-benzo[d]imidazol-5-yl)oxy)phenyl)amino)-7-methoxyquinazolin-6-yl)-3-(1-methylpyrrolidin-2-yl)acrylamide], the GI50 was at most 50 nM.

For the molecule `COc1cc2ncnc(Nc3cc(F)c(Oc4ccc5c(c4)ncn5C)cc3OC)c2cc1NC(=O)/C(F)=C/[C@H]1CCCN1C` [Example 61, (R,Z)-2-fluoro-N-(4-((5-fluoro-2-methoxy-4-((1-methyl-1H-benzo[d]imidazol-5-yl)oxy)phenyl)amino)-7-methoxyquinazolin-6-yl)-3-(1-methylpyrrolidin-2-yl)acrylamide], the GI50 is at most 50 nM.

As for `COc1cc2ncnc(Nc3cc(C)c(Oc4ccc5nccnc5c4)cc3OC)c2cc1NC(=O)/C(F)=C/[C@H]1CCCN1C` [Example 63, (R,Z)-2-fluoro-N-(7-methoxy-4-((2-methoxy-5-methyl-4-(quinoxalin-6-yloxy)phenyl)amino)quinazolin-6-yl)-3-(1-methylpyrrolidin-2-yl)acrylamide], the GI50 is at most 50 nM.

On to `COc1cc2ncnc(Nc3cc(C)c(Oc4ccc5ccccc5c4)cc3OC)c2cc1NC(=O)/C(F)=C/[C@H]1CCCN1C` [Example 64, (R,Z)-2-fluoro-N-(7-methoxy-4-((2-methoxy-5-methyl-4-(naphthalen-2-yloxy)phenyl)amino)quinazolin-6-yl)-3-(1-methylpyrrolidin-2-yl)acrylamide], for which the GI50 is at most 50 nM.

On to `COc1cc2ncnc(Nc3cc(C)c(Oc4ccc5ccccc5c4)cc3OC)c2cc1NC(=O)/C(F)=C\[C@H]1CCCN1C` [Example 65, (R,E)-2-fluoro-N-(7-methoxy-4-((2-methoxy-5-methyl-4-(naphthalen-2-yloxy)phenyl)amino)quinazolin-6-yl)-3-(1-methylpyrrolidin-2-yl)acrylamide], for which the GI50 is at most 50 nM.

As to `COc1cc2ncnc(Nc3cc(C)c(Oc4ccc5oc(C)nc5c4)cc3OC)c2cc1NC(=O)/C(F)=C/[C@H]1CCCN1C` [Example 68, (R,Z)-2-fluoro-N-(7-methoxy-4-((2-methoxy-5-methyl-4-((2-methylbenzo[d]oxazol-5-yl)oxy)phenyl)amino)quinazolin-6-yl)-3-(1-methylpyrrolidin-2-yl)acrylamide], the GI50 is at most 50 nM.

As for `COc1cc2ncnc(Nc3cc(C)c(Oc4ccc5c(c4)NC(O)O5)cc3OC)c2cc1NC(=O)/C(F)=C/[C@H]1CCCN1C` (stereo partly drawn) [Example 70, (Z)-2-fluoro-N-(4-((4-((2-hydroxy-2,3-dihydrobenzo[d]oxazol-5-yl)oxy)-2-methoxy-5-methylphenyl)amino)-7-methoxyquinazolin-6-yl)-3-((R)-1-methylpyrrolidin-2-yl)acrylamide], the GI50 is at most 50 nM.

`COc1cc2ncnc(Nc3cc(C)c(Oc4ccn(C)c(=O)c4)cc3OC)c2cc1NC(=O)/C(F)=C\[C@H]1CCCN1C` [Example 71, (R,E)-2-fluoro-N-(7-methoxy-4-((2-methoxy-5-methyl-4-((1-methyl-2-oxo-1,2-dihydropyridin-4-yl)oxy)phenyl)amino)quinazolin-6-yl)-3-(1-methylpyrrolidin-2-yl)acrylamide]: the GI50 was at most 50 nM.

In the case of `COc1cc2ncnc(Nc3cc(C)c(Oc4ccc5ncnn5c4)cc3OC)c2cc1NC(=O)/C(F)=C\[C@H]1CCCN1C` [Example 72, (R,E)-N-(4-((4-([1,2,4]triazolo[1,5-a]pyridin-6-yloxy)-2-methoxy-5-methylphenyl)amino)-7-methoxyquinazolin-6-yl)-2-fluoro-3-(1-methylpyrrolidin-2-yl)acrylamide], the GI50 is at most 50 nM.

On to `COc1cc2ncnc(Nc3cc(C)c(Oc4ccc5ncnn5c4)cc3OC)c2cc1NC(=O)/C(F)=C/[C@H]1CCCN1C` [Example 73, (R,Z)—N-(4-((4-([1,2,4]triazolo[1,5-a]pyridin-6-yloxy)-2-methoxy-5-methylphenyl)amino)-7-methoxyquinazolin-6-yl)-2-fluoro-3-(1-methylpyrrolidin-2-yl)acrylamide], for which the GI50 was at most 50 nM.

As to `COc1cc2ncnc(Nc3cc(C)c(Oc4cnc5ccnn5c4)cc3OC)c2cc1NC(=O)/C(F)=C\[C@H]1CCCN1C` [Example 79, (R,E)-2-fluoro-N-(7-methoxy-4-((2-methoxy-5-methyl-4-(pyrazolo[1,5-a]pyrimidin-6-yloxy)phenyl)amino)quinazolin-6-yl)-3-(1-methylpyrrolidin-2-yl)acrylamide], the GI50 is at most 50 nM.

`COc1cc2ncnc(Nc3cc(C)c(Oc4cnc5ccnn5c4)cc3OC)c2cc1NC(=O)/C(F)=C/[C@H]1CCCN1C` [Example 80, (R,Z)-2-fluoro-N-(7-methoxy-4-((2-methoxy-5-methyl-4-(pyrazolo[1,5-a]pyrimidin-6-yloxy)phenyl)amino)quinazolin-6-yl)-3-(1-methylpyrrolidin-2-yl)acrylamide]: the GI50 is at most 50 nM.

For the molecule `COc1cc2ncnc(Nc3cc(C)c(Oc4ccc5ncsc5c4)cc3OC)c2cc1NC(=O)/C(F)=C\[C@H]1CCCN1C` [Example 81, (R,E)-N-(4-((4-(benzo[d]thiazol-6-yloxy)-2-methoxy-5-methylphenyl)amino)-7-methoxyquinazolin-6-yl)-2-fluoro-3-(1-methylpyrrolidin-2-yl)acrylamide], the GI50 was at most 50 nM.

With `COc1cc2ncnc(Nc3cc(C)c(Oc4ccc5ncsc5c4)cc3OC)c2cc1NC(=O)/C(F)=C/[C@H]1CCCN1C` [Example 82, (R,Z)—N-(4-((4-(benzo[d]thiazol-6-yloxy)-2-methoxy-5-methylphenyl)amino)-7-methoxyquinazolin-6-yl)-2-fluoro-3-(1-methylpyrrolidin-2-yl)acrylamide], the GI50 was at most 50 nM.

`COc1cc2ncnc(Nc3cc(C)c(Oc4ccc5scnc5c4)cc3OC)c2cc1NC(=O)/C(F)=C\[C@H]1CCCN1C` [Example 84, (R,E)-N-(4-((4-(benzo[d]thiazol-5-yloxy)-2-methoxy-5-methylphenyl)amino)-7-methoxyquinazolin-6-yl)-2-fluoro-3-(1-methylpyrrolidin-2-yl)acrylamide]: the GI50 was at most 50 nM.

With `COc1cc2ncnc(Nc3cc(C)c(Oc4ccc5c(c4)OCO5)cc3OC)c2cc1NC(=O)/C(F)=C\[C@H]1CCCN1C` [Example 85, (R,E)-N-(4-((4-(benzo[d][1,3]dioxol-5-yloxy)-2-methoxy-5-methylphenyl)amino)-7-methoxyquinazolin-6-yl)-2-fluoro-3-(1-methylpyrrolidin-2-yl)acrylamide], the GI50 is at most 50 nM.

In the case of `COc1cc2ncnc(Nc3cc(C)c(Oc4ccc5c(c4)OCO5)cc3OC)c2cc1NC(=O)/C(F)=C/[C@H]1CCCN1C` [Example 86, (R,Z)—N-(4-((4-(benzo[d][1,3]dioxol-5-yloxy)-2-methoxy-5-methylphenyl)amino)-7-methoxyquinazolin-6-yl)-2-fluoro-3-(1-methylpyrrolidin-2-yl)acrylamide], the GI50 is at most 50 nM.

In the case of `COc1cc2ncnc(Nc3cc(C)c(Oc4ccc5cccnc5c4)cc3OC)c2cc1NC(=O)/C(F)=C/[C@H]1CCCN1C` [Example 87, (R,Z)-2-fluoro-N-(7-methoxy-4-((2-methoxy-5-methyl-4-(quinolin-7-yloxy)phenyl)amino)quinazolin-6-yl)-3-(1-methylpyrrolidin-2-yl)acrylamide], the GI50 was at most 50 nM.

For `COc1cc2ncnc(Nc3cc(C)c(Oc4ccc5cccnc5c4)cc3OC)c2cc1NC(=O)/C(F)=C\[C@H]1CCCN1C` [Example 88, (R,E)-2-fluoro-N-(7-methoxy-4-((2-methoxy-5-methyl-4-(quinolin-7-yloxy)phenyl)amino)quinazolin-6-yl)-3-(1-methylpyrrolidin-2-yl)acrylamide], the GI50 was at most 50 nM.

As for `COc1cc2ncnc(Nc3cc(C)c(Oc4ccc5cnn(C)c5c4)cc3OC)c2cc1NC(=O)/C(F)=C\[C@H]1CCCN1C` [Example 89, (R,E)-2-fluoro-N-(7-methoxy-4-((2-methoxy-5-methyl-4-((1-methyl-1H-indazol-6-yl)oxy)phenyl)amino)quinazolin-6-yl)-3-(1-methylpyrrolidin-2-yl)acrylamide], the GI50 is at most 50 nM.
